20 molecules from patent publication US20080233621A1, “Method For Producing Alcohol and Carboxylic Acid Having Optical Activity” (API Corporation, priority 2004, published 2008) can be followed below.

The structures appear in SMILES notation.

In this experiment the test system is carbonyl reductase IsADH1. The experiment in a line: Substrate specificity of IsADH1: carbonyl reductase activity by NADPH consumption (absorbance at 340 nm). The format is biochemical, Issatchankia scutulata var. scutulata JCM1828 strain. More on the design: key: —: Activity cannot be detected; Trace: a slight level of activity is detected. The conditions noted are these: purified carbonyl reductase, 2 mM substrate, 0.32 mM NADPH, 100 mM Tris-HCl (pH 7.5), 37° C.; activity to 1-acetoxy-3-chloro-2-propanone defined as 100. The method, then:
The Issatchankia scutulata var. scutulata JCM1828 strain was cultured in 2 L of a medium (80 g of glucose, 20 g of yeast extract (manufactured by Difco), and 40 g/L peptone (manufactured by Kyokuto Pharmaceutical Industrial Co., Ltd.)), and a cell mass was then prepared by centrifugation. 150 g of the obtained wet cell mass was suspended in 10 mM potassium phosphate buffer (pH 7) and 0.1 mM DTT (hereinafter simply referred to as a “buffer”), and it was then crushed with DYNO-MILL KDL (manufactured by Shimaru Enterprises Corp.). Thereafter, the cell mass residue was eliminated by centrifugation, so as to obtain a cell-free extract. Thereafter, PEG6000 was added to the cell-free extract to a concentration of 90 g/L, and the obtained mixture was then left at rest at 4° C. for 1 hour. Thereafter, the precipitate was eliminated by centrifugation. The obtained supernatant was then subjected to anion exchange chromatography using DEAE Sepharose Fast Flow (manufactured by Amersham Biosciences), hydrophobic interaction chromatography using Butyl Sepharose 4 Fast Flow (manufactured by Amersham Biosciences), anion exchange chromatography using MonoQ (manufactured by Amersham Biosciences), and Gel filtration chromatography using Superdex 200 (manufactured by Amersham Biosciences), so that carbonyl reductase of interest could be purified to a single band in electrophoresis.
During purification, the activity of carbonyl reductase was measured by reacting the reaction solution containing an enzyme solution (100 mM Tris-HCl (pH 7.5), 0.32 mM NADPH, and 2 mM 1-acetoxy-3-chloro-2-propanone) at 37° C. and then calculating the amount of NADPH consumed based on a decrease in the absorbance at 340 nm. For the measurement of the absorbance, SPECTRAmax 190 (manufactured by Molecular Devices) was used. It is to be noted that the activity necessary for consuming 1 nmol of NADPH for 1 minute in the aforementioned reaction was defined as 1 U.
With regard to various carbonyl compounds, a reaction solution (100 mM Tris-HCl (pH 7.5), 0.32 mM NADPH, and a 2 mM substrate) containing the carbonyl reductase solution purified in (2) above was prepared, and it was reacted at 37° C. The amount of NADPH consumed in the reaction solution was monitored based on the absorbance at 340 nm, so as to measure carbonyl reductase activity to each compound. For the measurement of the absorbance, SPECTRAmax 190 (manufactured by Molecular Devices) was used. The relative activity of carbonyl reductase to each substrate compound obtained when carbonyl reductase activity to 1-acetoxy-3-chloro-2-propanone was defined as 100 is shown in Table 4.
For `CC(=O)OCC(=O)CCl` [1-acetoxy-3-chloro-2-propanone], the Relative activity turned out to be 100.
Under `O=C(c1ccccc1)C(F)(F)F` [2,2,2-trifluoroacetophenone] stands 53.8.
For the molecule `CCC(=O)C(C)=O` [2,3-pentadione], the Relative activity entry was “Trace”.
Under `O=C1CC2CCC1C2` (centres unmarked) [2-norbornanone] stands “—”; under `CCC(=O)c1cccnc1` [3-propionylpyridine], 11.2; under `O=C1CN2CCC1CC2` [3-quinuclidinone], “Trace”.
Take `CC(=O)C(C)O` (centres unmarked) [Acetoin]: the Relative activity entry was “—”.
Under `CC(=O)c1ccccc1` [Acetophenone] stands “—”.
Under `CC(=O)C(C)=O` [Diacetyl] stands “—”.
`CCOC(=O)C(=O)C(C)C` [Ethyl 3-methyl-2-oxobutylate]: the Relative activity result is recorded as “Trace”.
Under `CCOC(=O)CC(C)=O` [Ethyl 3-oxobutyrate] stands 25.5.
`CCOC(=O)CC(=O)CCl` [Ethyl 4-chloro-3-oxobutyrate] showed a Relative activity of 212.
`CCOC(=O)CC(=O)c1ccccc1` [Ethyl benzoylacetate]: the Relative activity entry is “Trace”.
Under `CCOC(=O)CC(=O)c1cccnc1` [Ethyl nicotinoylacetate] stands 20.7.
For the molecule `CCOC(=O)C(C)=O` [Ethyl pyruvate], the Relative activity result is on record as “Trace”.
Under `CC(=O)COc1ccccc1` [Phenoxyacetone] stands “—”.
Under `O=C(O)C(=O)Cc1ccccc1` [Phenylpyruvic acid] stands 12.2; under `CCC(=O)c1ccccc1` [Propiophenone], “Trace”.
Under `O=Cc1ccc(Cl)cc1` [p-chlorobenzaldehyde] stands 58.0; under `O=Cc1ccc(O)cc1` [p-hydroxybenzaldehyde], “—”.
